Assay results as given in patent EP0302934A1, “ALICYCLIC DICARBOXYLIC ACID DERIVATIVES AND MUSCLE RELAXANTS CONTAINING THEM AS EFFECTIVE INGREDIENTS” (NIPPON ZEON CO., LTD., priority 1987, dated 1988).
“Also recorded” adds a separate entry of the source.

What was measured:
ICR male mice = test: Horizontal wire test; format: in vivo; settings: maximum number of fallen mice out of 6 per group; 100 mg/kg-body weight orally, suspended in 0.4% aqueous carboxymethyl cellulose
Text: Thereafter, at constant intervals of time, the mice were suspended by their forepaws on the metallic wire held horizontally, and the number of animals failing to hang was counted.

Wister male rats = test: Test method using anaemic decerebrate rigidity animals; format: in vivo; settings: 3 mg/kg body weight intravenously in polyethylene glycol; three rats per group; visually followed over 60 minutes
Description: Each of Compound 1 and Compound 3 obtained in the synthesis examples was dissolved into 100% polyethylene glycol (molecular weight ca. 400) to prepare test drugs having a concentration of 0.3%. According to the method of Fukuda et al. (Fukuda, H., Ito, T., Hashimoto, S. and Kudo, Y., Japan. J. Pharmacol., (1974) 24; 810), the rigidity was induced in Wister male rats (body weight 250 to 350 g). Thus, by ligating both the common carotid arteries and coagulating the basilarartery by means of high frequency wave, the rigidity was induced in the fore legs of the animals. Using three animals as one group, each test drug was intravenously administered to the animals so that the amount of active ingredient came to 3 mg/kg body weight. Thereafter, whether the rigidity in the fore legs of the rat was relaxed or not was visually followed over a continuous 60 minutes.

in vivo = test: in vivo; set-up: species or system mice; settings: mouse, po
Description: ICR male mice (body weight 20 to 30 g, 10 animals per one group) were used for the test.
A test drug was prepared by suspending Compound 3 into 0.4% aqueous solution of carboxymethyl cellulose, and it was orally administered.
Thereafter, the state of the animals was visually observed for 5 days. As the result, LD50 (mg/kg) was 1,000 mg/kg or more.

Row | Compound | No. of fallen cases (ICR male mice) | rigidity in the fore legs relaxed or not (Wister male rats) | LD50 at 120 h (in vivo)
1 | 2-(3',5'-Dichlorophenylcarbamoyl)-3(6)-methyl-4-cyclohexenecarboxylic Acid [Compound 5] | 3 | – | –
2 | CC1C=CCC2C(=O)N(c3cc(Cl)cc(Cl)c3)C(=O)C12 (centres unmarked) [Compound 1, N-(3^1,5^1-Dichlorophenyl)-3-methyl-4-cyclohexene-l,2-dicarboxylic Acid Imide] | 5 | the rigidity disappeared | –
3 | CC1C=CC(C)C2C(=O)N(c3cc(Cl)cc(Cl)c3)C(=O)C12 (centres unmarked) [Compound 3, N-(3',5'-Dichlorophenyl)-3,6-dimethyl-4-cyclohexene-1,2-dicarboxylic acid imide] | 3 | the rigidity disappeared; also recorded: particularly marked rigidity - eliminating effect | ≥ 1000 mg/kg
4 | CC1CCC(C)C2C(=O)N(c3cc(Cl)cc(Cl)c3)C(=O)C12 (centres unmarked) [Compound 4, N-(3' ,5'-Dichlorophenyl)-3,6-dimethyicyclo-hexane-l,2-dicarboxylic acid imide] | 3 | – | –
5 | CC1C=CC(C)C(C(=O)Nc2cc(Cl)cc(Cl)c2)C1C(=O)[O-].[Na+] (centres unmarked) [Compound 7, Sodium 2-(3',5'-Dichlorophenyl-carbamoyl)-3,6-dimethyl-4-cyclohexenecarboxylate] | 3 | – | –
